# Tests used:
# Format in all cases: cell-based
# [1] = test system: S. aureus NRS384; assay: S. aureus intracellular killing assay in THP-1 macrophages; conditions: S. aureus NRS384 in THP-1 macrophages, 2 h, top conc. 1e−6 M
# Method: (§1) THP-1 monocytic cell line (American Type Culture Collection) was grown in media (RPMI + 10% FBS + 1% Penicillin/Streptomycin), then seeded at a density of 1e5 cells/well in a 96 well plate and differentiated into macrophages for 3 days prior to infection using 200 nM PMA. Overnight culture of S. aureus or S. typhimurium was grown in RPMI or TSB, respectively, washed twice with PBS and resuspended at 1e7 cfu/ml in PBS. THP-1 were washed with warm media (RMPI without FBS) to remove the Penicillin/Streptomycin and then infected with the bacterial suspension at a multiplicity of infection of 10:1 (S. aureus:macrophages) or 5:1 (S. typhimurium:macrophages). Plates were centrifuged at 300 × g for 5 min to synchronize adhesion of the bacteria to the macrophages, then incubated at 37 °C for 2 h for S. aureus infection or 1 h for S. typhimurium infection. Free-floating bacteria were removed by washing twice with warm media and the remaining extracellular bacteria were killed by addition of media containing gentamicin (50 ug/ml). After 1 h, media was aspirated and the indicated compound was added to the S. aureus-infected macrophages in a dilution series starting at 1e−6 M, with 1:5 dilutions for 6 points (1.0 × 10^−6 M, 2.0 × 10^−7 M, 4.0 × 10^−8 M, 8.0 × 10^−9 M, 1.6 × 10^−9 M, and 3.2 × 10^−10 M) or to the to the S. typhimurium-infected macrophages in a dilution series starting at 1e−4 M, with 1:3 dilutions followed by 1:10 dilutions for 6 points (1.0 × 10^−4 M, 3.0 × 10^−5 M, 1.0 × 10^−5 M, 1.0 × 10^−6 M, 1.0 × 10^−7 M, and 1.0 × 10^−8 M). The compounds were added in media containing 50 µg/ml gentamicin to prevent extracellular growth of bacteria. After 2 h, plates were washed twice with warm RPMI without FBS, and 100 μl of THP-1 lysis buffer (0.1% Triton in PBS) was added to each well. Bacterial survival was enumerated by colony forming units (cfu) through serial dilution and plating onto tryptic soy agar (TSA, Teknova) plates.
# [2] = test system: Salmonella typhimurium AR-0031; assay: S. typhimurium intracellular killing assay in THP-1 macrophages; conditions: Salmonella typhimurium AR-0031 in THP-1 macrophages, top conc. 1e−4 M
# Method: as §1
# [3] = test system: Salmonella typhimurium ATCC 14028; assay: as above; conditions: Salmonella typhimurium ATCC 14028 in THP-1 macrophages, top conc. 1e−4 M
# Method: as §1
smiles,measurement,setting,value
COC1C=COC2(C)Oc3c(C)c(O)c4c(=O)c(c5oc6cc(OCCN(C)C)ccc6nc-5c4c3C2=O)NC(=O)C(C)=CC=CC(C)C(O)C(C)C(O)C(C)C(OC(C)=O)C1C (stereo not drawn) [Compound 4],Intracellular MIC,[1],40 nM
same,Intracellular MIC,[2],30 µM
same,Intracellular MIC,[3],100 µM

# Reference: PMC10766536 (The Journal of Antibiotics, 2023)
